The subject of one assay is IFN-γ. Briefly: RT-PCR cytokine expression in the aorta: IFN-γ. It is filed as in vivo. As to conditions: oral 1 mg/mouse 5 times every other day, 8 weeks after final administration. The procedure: (§1) The effect of ALLE, CI-201, its corresponding acetal derivatives Et-acetal and Me-acetal (Compounds IIa and IIb, FIG. 10) and oxLDL on cytokine expression in the target organ—the aorta—was evaluated using RT-PCR as described hereinabove. […] Oral administrations took place 5 times every other day.

Assay [1] has as its system Apo-E KO mice. The experiment in a line: Assessment of atherosclerosis: lesion area in the aortic sinus. The assay is classed as in vivo, mouse.
For another assay, the system named is IL-10. Briefly: RT-PCR cytokine expression in the aorta: IL-10. The following applies: oral 1 mg/mouse 5 times every other day, 8 weeks after final administration. It is filed as in vivo, mouse. The procedure:
as §1

Another assay relates to IL-12. Briefly: RT-PCR cytokine expression in the aorta: IL-12. It is filed as in vivo. The following applies: oral 1 mg/mouse 5 times every other day, 8 weeks after final administration. The procedure: as §1
The subject of assay [2] is Apo-E KO mice. Briefly: Aorta lesion (% from total area). As to conditions: oral 1 mg/mouse, 5 feedings every other day every 4 weeks over 12 weeks; 24.5 week old mice; End. The assay is classed as in vivo. An excerpt:
Assessment of Atherosclerosis: Quantification of atherosclerotic fatty streak lesions was done by calculating the lesion size in the aortic sinus as previously described (Paigen et al. Quantitative assessment of atherosclerotic lesions in mice. Atherosclerosis 1987; 68: […]) and by calculating the lesion size in the aorta. Briefly, after perfusion with saline Tris EDTA, the heart and the aorta were removed from the animals and the peripheral fat cleaned carefully. The upper section of the heart was embedded in OCT medium (10.24% w/w polyvinyl alcohol; 4.26% w/w polyethylene glycol; 85.50 w/w nonreactive ingredients) and frozen. […] Sections were evaluated for fatty streak lesions after staining with oil-red O. Lesion areas per section were scored on a grid (Rubin et al. Inhibition of early atherogenesis in transgenic mice by human apoplipoprotein A-I. Nature 1991; 353: 265-267) by an observer counting unidentified, numbered specimens. […]
Their effect on the triglyceride and cholesterol fractions of VLDL was also monitored by FPLC. […]
(§2) Mice were bled prior to feeding (Time 0), after the 2nd set of feeding and at the conclusion of the experiment (End) for determination of lipid profile, lipid fractionation and plasma collection. Atherosclerosis was assessed as described above in the aorta sinus and aorta. […] Weight was recorded every 2 weeks throughout the experiment. […]

A short description of assay [3]: FPLC analysis of triglyceride and cholesterol content of VLDL. It is filed as in vivo. The following applies: oral 1 mg/mouse, 3 sets over 12 weeks; measured 9 weeks from t=0; FPLC of pooled blood. The procedure: 24.5 weeks old Apo-E KO mice were fed 1 mg/mouse L-ALLE (triangle) (n=11), D-ALLE (inverted triangle) (n=9) or POVPC (square) (n=10) every other day for 5 days, at 4 weeks intervals over a 12 weeks period. Control mice were fed an identical volume (0.2 ml) and regimen of PBS (circle) (n=10). Triglyceride content (Tg, mg/ml) was measured 9 weeks from t=0, by enzymatic colorimetric method in the VLDL fractions following separation of pooled blood samples on FPLC, as described in the materials and methods section that follows.
24.5 weeks old Apo-E KO mice were fed 1 mg/mouse L-ALLE (triangle) (n=11), D-ALLE (inverted triangle) (n=9) or POVPC (square) (n=10) every other day for 5 days, at 4 weeks intervals over a 12 weeks period. Control mice were fed an identical volume (0.2 ml) and regimen of PBS (circle) (n=10). Cholesterol content (Cholesterol, mg/ml) was measured 9 weeks from t=0, by enzymatic colorimetric method in the VLDL fractions following separation of pooled blood samples on FPLC, as described in the materials and methods section that follows.
FPLC Analysis: Fast Protein Liquid Chromatography analysis of cholesterol and lipid content of lipoproteins was performed using Superose 6 HR 10/30 column (Amersham Pharmacia Biotech, Inc, Peapack, N.J.) on a FPLC system (Pharmacia LKB. FRAC-200, Pharmacia, Peapack, N.J.). A minimum sample volume of 300 μl (blood pooled from 3 mice was diluted 1:2 and filtered before loading) was required in the sampling vial for the automatic sampler to completely fill the 200 μl sample loop. Fractions 10-40 were collected, each fraction contained 0.5 ml. A 250 μl sample from each fraction was mixed with freshly prepared cholesterol reagent or triglyceride reagent respectively, incubated for 5 minutes at 37° C. and assayed spectrophotometrically at 500 nm.
Their effect on the triglyceride and cholesterol fractions of VLDL was also monitored by FPLC. […] male, 24.5 week old Apo-E KO mice were divided into 5 groups. In group A (n=11) mice were fed with 1 mg/mouse L-ALLE suspended in 0.2 ml PBS, administered by gavage, as described above, every other day for 5 days. In group B (n=9) mice were fed with 1 mg/mouse D-ALLE suspended in 0.2 ml PBS, administered per os, as described above, every other day for 5 days. In group C (n=10) mice were fed with 1 mg/mouse POVPC suspended in 0.2 ml PBS, administered by gavage, as described above, every other day for 5 days. […]
as §2

In another assay the test system is IL12p40. The experiment in a line: p40 production by activated BMDC's (ELISA). The assay is classed as cell-based, mouse. The following applies: BMDC's, 1 h pre-incubation, PGN 10 μg/ml, 24 hours; preliminary results. For orientation: An ELISA detects its analyte on a solid surface through an enzyme-linked reagent.

A value given as a limit tells only on which side of the number the result lay.

As for 2,5′-Aldehyde Lecithin Ether [ALLE], the “IFN-γ expression in the aorta versus PBS” value in the assay with IFN-γ is reported as “Reduced expression levels”. Besides, in the assay with Apo-E KO mice [1] (ALLE by both oral (1 mg/mouse) and nasal (10 μg/mouse) administrations), the protection from atherogenesis entry is “approximately 50%”. In addition, in the assay on Apo-E KO mice [1] (i.p. immunization with ALLE (mixture of D- and L-)), the “protection from atherosclerotic lesion formation” value is recorded as more than 50%. Moreover, the Lesion size with Apo-E KO mice [1] (i.p. immunization x4 every 2 weeks (ALLE 150 μg/mouse coupled to PPD; PPD alone), 4.5 weeks post 4th immunization) is 101000 ± 8276 μm^2; in the assay with Apo-E KO mice [1] (nasal 10 μg/mouse L-ALLE every other day for 3 days, 8 weeks after last exposure), 82708 ± 10986 μm^2; with Apo-E KO mice [1] (oral 10 μg/mouse L-ALLE+D-ALLE every other day for 5 days, 8 weeks after last feeding) it was 103889 ± 14320 μm^2; in the assay on Apo-E KO mice [1] (oral 1 mg/mouse L-ALLE every other day for 5 days, 8 weeks after last feeding), 76944 ± 17072 μm^2; in the assay on Apo-E KO mice [1] (oral 1 mg/mouse L-ALLE+D-ALLE every other day for 5 days, 8 weeks after last feeding), 85278 ± 11633 μm^2. In addition, in the assay with Apo-E KO mice [1] (oral administration), the “atherogenesis in Apo-E KO mice, oral administration (summary of earlier examples)” value is given as “substantially inhibited atherogenesis”. This compound also gave a protection from atherosclerosis with Apo-E KO mice [1] (oral administration of ALLE, 10 μg-1 mg/mouse) of more than 50%. In addition, the “IL-10 expression in the aorta versus PBS” value in the assay with IL-10 is reported as “elevated levels”. Moreover, the “IL-12 expression in the aorta versus PBS” value in the assay on IL-12 is listed as “reduced levels”.

For `C=CCCCCO[C@H](COCCCCCCCCCCCCCCCC)COP(=O)([O-])OCC[N+](C)(C)C` [Compound V, 1-Hexadecyl-2-(5′-hexenyl)-sn-glycero-3-phosphocholine], the atherogenesis progression entry with Apo-E KO mice [1] (oral 0.1 μg/dose, 3 monthly sets of 5 administrations) is listed as “did not effect atherogenesis progression”. For the same compound, the Sinus Lesion in the assay on Apo-E KO mice [1] (oral 0.1 μg/dose, 3 monthly sets of 5 administrations, 12 weeks, 23-26 weeks old mice, no statistical difference to PBS) was found to be 238000 ± 32200 µm²; in the assay on Apo-E KO mice [1] (oral 0.2 mg/mouse every other day for 5 days, 8 weeks after last administration), 334622 ± 26100 μm^2; in the assay on Apo-E KO mice [1] (oral 1 mg/mouse every other day for 5 days, 8 weeks after last administration) it was 361166 ± 24068 μm^2; with Apo-E KO mice [1] (oral 5 mg/mouse every other day for 5 days, 8 weeks after last administration), 307291 ± 22689 μm^2. The effect on atherogenesis entry with Apo-E KO mice [1] (oral 0.2-5 mg/mouse every other day for 5 days) is reported as “no effect”.

Turning to `CCCCCCCCCCCCCCCCOC[C@H](COP(=O)([O-])OCC[N+](C)(C)C)OCCCCC=O` [D-ALLE, 1-hexadecyl-2-(5′-oxo-pentanyl)-sn-glycero-3-phosphocholine], in the assay with Apo-E KO mice [1] (oral 1 mg/mouse, 5 feedings every other day every 4 weeks over 12 weeks, 24.5 week old mice, End (12 weeks after first feeding)), the “Sinus Lesion” value turned out to be 245938 ± 20474 μm^2. Moreover, the “protection from atheromatous progression” value in the assay on Apo-E KO mice [1] (oral 1 mg/mouse, late stage, compared with lesion scores at 24.5 weeks) is listed as “nearly complete protection”. For the same compound, the “Aorta lesion (% from total area)” value with Apo-E KO mice [2] was 4.5 % from total area. Besides, in assay [3], the “cholesterol content of VLDL” value is on record as “reduction” and the “triglyceride content of VLDL” value is given as “reduction”.

With `CCCCCCCCCCCCCCCCOC[C@H](COP(=O)([O-])OCC[N+](C)(C)C)OC(=O)CCC` [PAF2C, 1-O-Hexadecyl-2-O-Butyroyl-sn-Glycero-3-Phosphocholine, reference compound], the “p40 production / p40 inhibition, structure-function analysis” value (from here on “p40 production / p40 inhibition”) in the assay on IL12p40 is listed as “efficient in p40 inhibition”.

On to `CCCCCCCCCCCCCCCCOC[C@H](COP(=O)([O-])OCC[N+](C)(C)C)OC(C)=O` [PAF, 1-O-Hexadecyl-2-Acetoyl-sn-Glycero-3-Phosphocholine, reference compound], for which the “p40 production / p40 inhibition” value with IL12p40 was “efficient in p40 inhibition”.

For the compound `CCCCCCCCCCCCCCCCOCC(COP(=O)([O-])OCC[N+](C)(C)C)OCCCCC(=O)OC` (stereo not shown) [methyl ester of CI-201], the “p40 production / p40 inhibition” value in the assay on IL12p40 is given as “restored p40 production”.

As for `CCCCCCCCCCCCCCCCOCC(CO)OCCCCC(=O)O` (stereo not shown) [non phosphorylated metabolite of CI-201], in the assay on IL12p40, the “p40 production / p40 inhibition” value is listed as “restored p40 production”.

For the compound `CCCCCCCCCCCCCCCCOC[C@H](COP(=O)(O)OCCN)OCCCCC(=O)O` [phosphoethanol amine, 1-O-Hexadecyl-2-(4′-carboxybutyl)-sn-Glycero-3-Phosphoethanolamine], the “p40 production / p40 inhibition” value in the assay with IL12p40 is “did not alter the molecule's p40 inhibitory effect”.
